Measured values published in US8809280B2, “Therapeutic peptides” (Lytix Biopharma AS, priority 2009, dated 2014).
Values after ≈ are worked out from the molar mass of the structure shown. Read-outs that look alike come from different tables or passages of the source.

How the values were obtained:
Format in all cases: cell-based
[1] = test system: Escherichia coli (ATTC 25922); assay: microbe, parasite or virus in culture; settings: for MIC: Escherichia coli; for Therapeutic index E. coli: EC50 RBC divided by MIC
Method: (§1) The antimicrobial testing was conducted by TosLab A/S (Tromsø, Norway). Each compound was diluted to 1 mg/ml in water and tested in duplicates at 200, 100, 50, 35, 15, 10, 5, 2.5, 1, 0.5 μg/ml except 4n which was tested at 50, 35, 15, 10, 5, 2.5, 1, 0.5 μg/ml due to solubility problems. All tested compounds were di TFA salts.
(§2) The bacterial strains were grown in 2% Bacto Peptone water until exponential growth was achieved. […] A bacterial concentration of 2×10^6 cfu/ml was used. Both negative control (no peptide) and positive control (Gentamicin) was used for all bacterial strains. Growth or no growth was judged by the turbidity of the wells.
Escherichia coli (ATTC 25922)
(§3) Antimicrobial assays: 200 μg/ml
(§4) Suitable methodologies are described in Example 1.
(§5) Each compound was tested in duplicates at 200, 100, 50, 35, 15, 10, 5, 2.5, 1, 0.5 μg/ml. All tested compounds were di-trifluoroacetic acid salts.

[2] = test system: Staphylococcus aureus (ATTC 25923); assay: microbe, parasite or virus in culture; settings: for MIC: Staphylococcus aureus; for Therapeutic index S. aureus: EC50 RBC divided by MIC
Method: as §1, §2
Staphylococcus aureus (ATTC 25923)
as §3, §4, §5

MRC-5 = assay: Toxicity assay MRC-5; settings: highest concentration tested 500 μg/ml; for IC50: Homo sapiens, MRC5, Example 2
Method: Cells for Toxicity Studies Used MRC-5 and human RBC MRC-5 assay: 500 μg/ml

[3] = test system: methicillin resistant Staphylococcus epidermidis (ATCC 27626); assay: microbe, parasite or virus in culture; settings: for MIC: Staphylococcus epidermidis, ATCC 27626 / MRSE; for Therapeutic index MRSE: EC50 RBC divided by MIC
Method: as §1, §2
Methicillin resistant Staphylococcus epidermidis (ATCC 27626)
as §3, §4, §5

human red blood cells = assay: cells; settings: Erythrocyte, highest concentration tested 1000 μg/ml
Method: The hemolytic testing against human erythrocytes was conducted by Lytix Biopharma A/S (Tromso, Norway). Each compound was tested from a concentration of 1 mg/ml and lower, except 4k and 4n which was only tested up to 0.5 mg/ml due to solubility problems. 8 mL of blood was collected from adult healthy male donors. The blood was divided equally and distributed in a commercial available EDTA containing test tube (BD vacutainer, 7.2 mg K2 EDTA) and in a 10 mL reaction vial containing 40 μL of a heparin solution (1000 U/mL in 0.9% sodium chloride). After 30 minutes the hematocrit of the EDTA treated blood was determined. The heparinized blood was centrifuged for 10 minutes at 1500 rpm and the supernatant removed. Subsequently the RBCs were washed with prewarmed PBS three times, and diluted to 10% hematocrit. The compounds dissolved in PBS (concentration 1 μg/mL to 1000 µg/mL) and the erythrocytes were incubated under agitation at 37° C. for one hour. A positive control with an end concentration of 0.1% TRITON X-100 (nonionic surfactant) and a negative control containing pure PBS buffer were included. The samples were centrifuged (4000 rpm) for 5 minutes and the absorption of the supernatant was measured at 405 nm. The values given in Table 1A correspond to 50% hemolysis.
The plasma fraction of heparinized human blood was first removed by centrifugation and three additional washing steps with 37° C. pre-warmed phosphate buffered saline (PBS). Subsequently, the human RBC were diluted to 10% hematocrit and the β^2,2-amino acid derivatives were dissolved in PBS providing concentrations ranging from 1-1000 μg/mL. The diluted RBC were added to the compound solutions to a final erythrocyte concentration of 1% v/v. PBS and TRITON X-100 (non-ionic surfactant), in a final concentration of 0.1% v/v, were included as negative and positive control. After 1 hour agitated incubation at 37° C. the samples were centrifuged at 4000 rpm for 5 min. Release of hemoglobin was determined by measuring the absorbance of the supernatant at 405 nm. Hemolytic activity was calculated as the ratio of treated sample with β^2,2-amino acid derivative and tenside treated sample according to the formula: […]

[4] = test system: methicillin resistant Staphylococcus aureus (ATCC 33591); assay: microbe, parasite or virus in culture; settings: for MIC: Staphylococcus aureus; for Therapeutic index MRSA: EC50 RBC divided by MIC
Method: as §1, §2
Methicillin resistant Staphylococcus aureus (ATCC 33591)
as §3, §4, §5

[5] = Example 2, values separated by / are repeat tests, read-out: Antimicrobial potency (MIC) E. coli
[6] = Example 2, values separated by / are repeat tests, read-out: Antimicrobial potency (MIC) S. aureus
[7] = Example 2, values separated by / are repeat tests, read-out: Antimicrobial potency (MIC) MRSE
[8] = Homo sapiens, Example 2, * low solubility in the test media, read-out: Toxicity RBC (EC50)
[9] = ATCC 33591 / MRSA, Example 2, values separated by / are repeat tests, read-out: Antimicrobial potency (MIC) MRSA
[10] = Example 2, values separated by / are repeat tests
[11] = ATCC25922, Example 4, ATCC 25922, di-trifluoroacetate salts, highest concentration tested 200 μg/ml, read-out: MIC E. coli
[12] = ATCC25923, Example 4, ATCC 25923, di-trifluoroacetate salts, highest concentration tested 200 μg/ml, read-out: MIC S. aureus
[13] = Example 4, ATCC 27626, di-trifluoroacetate salts, highest concentration tested 200 μg/ml, read-out: MIC MRSE
[14] = Example 4, hemolytic activity, human red blood cells, read-out: EC50 RBC
[15] = ATCC33591, Example 4, ATCC 33591, di-trifluoroacetate salts, highest concentration tested 200 μg/ml, read-out: MIC MTRSA

SMILES	MIC [1, 5]	MIC [2, 6]	IC50 (MRC-5)	MIC [3, 7]	EC50 (human red blood cells; [8])	MIC [4, 9]	Antimicrobial potency (MIC) S. aureus [2, 10]	Toxicity MRC-5 (MRC-5; Example 2)	Antimicrobial potency (MIC) MRSE [3, 10]	MIC [1, 11]	MIC [2, 12]	MIC [3, 13]	EC50 (human red blood cells; [14])	MIC [4, 15]	Therapeutic index E. coli [1]	Therapeutic index S. aureus [2]	Therapeutic index MRSE [3]	Therapeutic index MRSA [4]
NCCNC(=O)C(CN)(CCc1ccccc1)CCc1ccccc1 [Compound 5, N-(2-aminoethyl)-2-(aminomethyl)-2-phenethyl-4-phenylbutanamide]	> 200 µg/mL	100 µg/mL	21.5 µg/mL (≈ 63.3 µM)	50 µg/mL	> 1000 µg/mL	100 µg/mL												
CC(C)(C)c1cc(CC(CN)(Cc2cc(C(C)(C)C)cc(C(C)(C)C)c2)C(=O)NCCN)cc(C(C)(C)C)c1 [Compound 14, 3-amino-N-(2-aminoethyl)-2,2-bis(3,5-di-tert-butylbenzyl)propanamide]		3.75 µg/mL	7.5 µg/mL (≈ 14 µM)	2.5 µg/mL	> 62.5 µg/mL	2.5 µg/mL	5 µg/mL	8.5 µg/mL	5 µg/mL									
CN(C)CCNC(=O)C(CN)(Cc1ccc(C(F)(F)F)cc1)Cc1ccc(C(F)(F)F)cc1 [Compound 28, 3-amino-N-(2-(dimethylamino)ethyl)-2,2-bis(4-(trifluoromethyl)benzyl)-propanamide]	35 µg/mL	10 µg/mL		15 µg/mL	329 µg/mL	5 µg/mL												
CN1CCN(C(=O)C(CN)(Cc2ccc(C(C)(C)C)cc2)Cc2ccc(C(C)(C)C)cc2)CC1 [Compound 29, 3-amino-2,2-bis(4-tert-butylbenzyl)-1-(4-methylpiperazin-1-yl)propan-1-one]	10 µg/mL	10 µg/mL		5 µg/mL	241 µg/mL	10 µg/mL												
Cc1cc(C)cc(CC(CN)(Cc2cc(C)cc(C)c2)C(=O)N2CCN(C)CC2)c1 [Compound 30, 3-amino-2,2-bis(3,5-dimethyl-benzyl)-1-(4-methylpiperazin-1-yl)propan-1-one]	200 µg/mL	> 200 µg/mL		35 µg/mL	> 1000 µg/mL	200 µg/mL												
CN1CCN(C(=O)C(CN)(CCCc2ccccc2)CCCc2ccccc2)CC1 [Compound 31, 2-(aminomethyl)-1-(4-methyl-piperazin-1-yl)-5-phenyl-2-(3-phenylpropyl)pentan-1-one]	200 µg/mL	200 µg/mL		200 µg/mL	> 1000 µg/mL	200 µg/mL												
CN1CCN(C(=O)C(CN)(Cc2ccc3ccccc3c2)Cc2ccc3ccccc3c2)CC1 [Compound 32, 3-amino-1-(4-methylpiperazin-1-yl)-2,2-bis(naphthalen-2-ylmethyl)propan-1-one]	15 µg/mL	10 µg/mL		10 µg/mL	225 µg/mL	5 µg/mL												
CN1CCN(C(=O)C(CN)(Cc2ccc(C(F)(F)F)cc2)Cc2ccc(C(F)(F)F)cc2)CC1 [Compound 33, 3-amino-1-(4-methylpiperazin-1-yl)-2,2-bis(4-(trifluoromethyl)benzyl)propan-1-one]	50 µg/mL	35 µg/mL		50 µg/mL	376 µg/mL	10 µg/mL												
CN(C)CCN1CCN(C(=O)C(CN)(Cc2ccc(C(C)(C)C)cc2)Cc2ccc(C(C)(C)C)cc2)CC1 [Compound 34, 3-amino-2,2-bis(4-tert-butylbenzyl)-1-(4-(2-(dimethylamino)ethyl)piperazin-1-yl)propan-1-one]	10 µg/mL	10 µg/mL		10 µg/mL	252 µg/mL	10 µg/mL												
CN(C)CCN1CCN(C(=O)C(CN)(CCCc2ccccc2)CCCc2ccccc2)CC1 [Compound 36, 2-(aminomethyl)-1-(4-(2-(dimethyl-amino)ethyl)piperazin-1-yl)-5-phenyl-2-(3-phenylpropyl)pentan-1-one]	200 µg/mL	200 µg/mL		50 µg/mL	> 1000 µg/mL	50 µg/mL												
CN(C)CCN1CCN(C(=O)C(CN)(Cc2ccc3ccccc3c2)Cc2ccc3ccccc3c2)CC1 [Compound 37, 3-amino-1-(4-(2-(dimethylamino)ethyl)piperazin-1-yl)-2,2-bis(naphthalen-2-ylmethyl)propan-1-one]	35 µg/mL	15 µg/mL		10 µg/mL	301 µg/mL	2.5 µg/mL												
CN(C)CCN1CCN(C(=O)C(CN)(Cc2ccc(C(F)(F)F)cc2)Cc2ccc(C(F)(F)F)cc2)CC1 [Compound 38, 3-amino-1-(4-(2-(dimethylamino)ethyl)piperazin-1-yl)-2,2-bis(4-(trifluoromethyl)benzyl)propan-1-one]	100 µg/mL	35 µg/mL		50 µg/mL	862 µg/mL	5 µg/mL												
CN1CCN(C(=O)C(CN)(CCCc2ccccc2)CCCc2ccccc2)CC1 [Entry 5a]										315 µM	315 µM	315 µM	> 1000 µg/mL	315 µM				
CN1CCN(C(=O)C(CN)(Cc2ccc(C(F)(F)F)cc2)Cc2ccc(C(F)(F)F)cc2)CC1 [Entry 5b]										70 µM	49 µM	70 µM	525 µM	14 µM	7.5	11	7.5	38
CN(C)CCNC(=O)C(CN)(CCCc1ccccc1)CCCc1ccccc1 [Entry 6a]										160 µM	56 µM	56 µM	507 µM	56 µM	3.2	9.1	9.1	9.1
CN(C)CCNC(=O)C(CN)(Cc1ccc(C(F)(F)F)cc1)Cc1ccc(C(F)(F)F)cc1 [Entry 6b]										50 µM	14 µM	21 µM	468 µM	7.1 µM	9.4	33	22	66
NCCNC(=O)C(CN)(CCCc1ccccc1)CCCc1ccccc1 [Entry 7a]										336 µM	71 µM	25 µM	1380 µM	59 µM	4.1	19	55	23
NCCNC(=O)C(CN)(Cc1ccc(C(F)(F)F)cc1)Cc1ccc(C(F)(F)F)cc1 [Entry 7b]										52 µM	15 µM	15 µM	425 µM	7.4 µM	8	28	28	57
